Data published in PubChem BioAssay AID248 (DTP/NCI, 2004).
Several values for one entry are separate records, joined by “and”; a condition that tells them apart may be missing. Equal entries are not always repeated. Toxic doses and inconclusive results are not listed.

System: L1210 leukemia ip in BDF1 mice, survival T/C
Test: NCI In Vivo Anticancer Drug Screen. Data for tumor model L1210 Leukemia (intraperitoneal) in B6D2F1 (BDF1) mice
Conditions: endpoint: mean survival time, higher = longer survival
How it was run: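 Tumor cells were implanted, animals were treated, and survival was followed. The result divides the treated measurement by the vehicle-control measurement.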

[1] = dose: 100.0 mg/kg/injection, schedule: Q01DX009 (ip), vehicle: saline
[2] = dose: 200.0 mg/kg/injection, schedule: Q01DX009 (ip), vehicle: saline
[3] = dose: 400.0 mg/kg/injection, schedule: Q01DX009 (ip), vehicle: saline
[4] = dose: 400.0 mg/kg/injection, schedule: Q01DX001 (ip), vehicle: other
[5] = dose: 100.0 mg/kg/injection, schedule: Q04DX003 (ip), vehicle: Klucel (hydroxypropylcellulose) (HPC)
[6] = dose: 200.0 mg/kg/injection, schedule: Q04DX003 (ip), vehicle: Klucel (hydroxypropylcellulose) (HPC)
[7] = dose: 400.0 mg/kg/injection, schedule: Q04DX003 (ip), vehicle: Klucel (hydroxypropylcellulose) (HPC)
[8] = dose: 100.0 mg/kg/injection, schedule: Q01DX009 (ip), vehicle: saline with Tween-80
[9] = dose: 100.0 mg/kg/injection, schedule: Q01DX001 (ip), vehicle: saline
[10] = dose: 200.0 mg/kg/injection, schedule: Q01DX001 (ip), vehicle: saline
[11] = dose: 400.0 mg/kg/injection, schedule: Q01DX001 (ip), vehicle: saline

## CC(NC(=O)C1CC2c3cccc4[nH]cc(c34)CC2N(C)C1)C(C)(C)C (configuration not stated)
dose: 20.0 mg/kg/injection, schedule: Q01DX001 (ip), vehicle: Klucel (hydroxypropylcellulose) (HPC)
  T/C: 96 % of control
dose: 40.0 mg/kg/injection, schedule: Q01DX001 (ip), vehicle: Klucel (hydroxypropylcellulose) (HPC)
  T/C: 101 % of control
dose: 80.0 mg/kg/injection, schedule: Q01DX001 (ip), vehicle: Klucel (hydroxypropylcellulose) (HPC)
  T/C: 104 % of control

## CCOc1ccc(NC(C)=O)cc1CN(CCCl)CCBr
dose: 100.0 mg/kg/injection, schedule: Q01DX001 (ip), vehicle: Klucel (hydroxypropylcellulose) (HPC)
  T/C: 97 % of control
dose: 200.0 mg/kg/injection, schedule: Q01DX001 (ip), vehicle: Klucel (hydroxypropylcellulose) (HPC)
  T/C: 111 % of control
dose: 400.0 mg/kg/injection, schedule: Q01DX001 (ip), vehicle: Klucel (hydroxypropylcellulose) (HPC)
  T/C: 100 % of control

## Nc1nc(Cl)cc2c1ncn2C1OC(CO)C(O)C1O (configuration not stated)
dose: 100.0 mg/kg/injection, schedule: Q01DX005 (ip), vehicle: saline
  T/C: 105 % of control
dose: 200.0 mg/kg/injection, schedule: Q01DX005 (ip), vehicle: saline
  T/C: 107 % of control

## O=C(O)CC(=O)c1ccc(I)cc1
dose: 75.0 mg/kg/injection, schedule: Q01DX001 (ip), vehicle: saline
  T/C: 94 % of control

## C=CCOCC(O)CO (configuration not stated)
[1]
  T/C: 108 % of control
[2]
  T/C: 94 % of control
[3]
  T/C: 103 % of control

## O=C(Nc1ccccc1)c1cc(Cl)cc(Cl)c1Br
dose: 100.0 mg/kg/injection, schedule: Q01DX001 (ip), vehicle: other
  T/C: 96 % of control
dose: 200.0 mg/kg/injection, schedule: Q01DX001 (ip), vehicle: other
  T/C: 96 % of control
[4]
  T/C: 95 % of control

## Cc1ccc2c(Br)cc(Br)c(O)c2n1
dose: 25.0 mg/kg/injection, schedule: Q01DX009 (ip), vehicle: Klucel (hydroxypropylcellulose) (HPC)
  T/C: 94 % of control
dose: 50.0 mg/kg/injection, schedule: Q01DX009 (ip), vehicle: Klucel (hydroxypropylcellulose) (HPC)
  T/C: 96 % of control
dose: 100.0 mg/kg/injection, schedule: Q01DX009 (ip), vehicle: Klucel (hydroxypropylcellulose) (HPC)
  T/C: 97 % of control and 89 % of control
[5]
  T/C: 97 % of control
[6]
  T/C: 112 % of control
[7]
  T/C: 98 % of control

## CN(C)CCC1(c2ccccc2)CCN(C)C1=O (configuration not stated)
dose: 75.0 mg/kg/injection, schedule: Q01DX001 (ip), vehicle: carboxymethylcellulose (CMC)
  T/C: 95 % of control
dose: 150.0 mg/kg/injection, schedule: Q01DX001 (ip), vehicle: carboxymethylcellulose (CMC)
  T/C: 95 % of control

## O=[N+]([O-])c1ccc(/C=N/O)s1
dose: 25.0 mg/kg/injection, schedule: Q04DX002 (ip), vehicle: saline with Tween-80
  T/C: 95 % of control
dose: 50.0 mg/kg/injection, schedule: Q04DX002 (ip), vehicle: saline with Tween-80
  T/C: 104 % of control

## O=NN(CCCl)C(=O)NC1CCS(=O)(=O)C1 (configuration not stated) (tested in a mixture with another compound)
dose: 6.0 mg/kg/injection, schedule: Q01DX001 (ip), vehicle: other
  T/C: 177 % of control
dose: 9.0 mg/kg/injection, schedule: Q01DX001 (ip), vehicle: other
  T/C: 270 % of control
dose: 13.0 mg/kg/injection, schedule: Q01DX001 (ip), vehicle: other
  T/C: 300 % of control
dose: 20.0 mg/kg/injection, schedule: Q01DX001 (ip), vehicle: other
  T/C: 200 % of control
dose: 30.0 mg/kg/injection, schedule: Q01DX001 (ip), vehicle: other
  T/C: 223 % of control
dose: 44.0 mg/kg/injection, schedule: Q01DX001 (ip), vehicle: other
  T/C: 184 % of control
dose: 67.0 mg/kg/injection, schedule: Q01DX001 (ip), vehicle: other
  T/C: 102 % of control

## CCC(=O)Nc1cccc(OC(C)=O)c1
[8]
  T/C: 91 % of control
dose: 200.0 mg/kg/injection, schedule: Q01DX009 (ip), vehicle: saline with Tween-80
  T/C: 90 % of control
dose: 400.0 mg/kg/injection, schedule: Q01DX009 (ip), vehicle: saline with Tween-80
  T/C: 107 % of control

## Cc1[nH]c2ccccc2c1C1=CC(=O)c2ccccc2C1=O
[9]
  T/C: 93 % of control
[10]
  T/C: 112 % of control
[11]
  T/C: 98 % of control

## CC(C)(C)c1cc([N+](=O)[O-])cc(C(C)(C)C)c1O
dose: 50.0 mg/kg/injection, schedule: Q01DX009 (ip), vehicle: saline with Tween-80
  T/C: 102 % of control
[9]
  T/C: 96 % of control
[8]
  T/C: 98 % of control
dose: 100.0 mg/kg/injection, schedule: Q04DX003 (ip), vehicle: saline
  T/C: 101 % of control
[10]
  T/C: 94 % of control
dose: 200.0 mg/kg/injection, schedule: Q04DX003 (ip), vehicle: saline
  T/C: 93 % of control
[11]
  T/C: 93 % of control

## CCOC(=O)c1cnc(SC)nc1NCCO
[5]
  T/C: 97 % of control
[6]
  T/C: 95 % of control
[7]
  T/C: 97 % of control

## CCCCN(C)N=Nc1ccccc1C(N)=O
dose: 89.0 mg/kg/injection, schedule: Q01DX009 (ip), vehicle: Klucel (hydroxypropylcellulose) (HPC)
  T/C: 108 % of control
dose: 89.0 mg/kg/injection, schedule: Q01DX009 (ip), vehicle: other
  T/C: 108 % of control
dose: 133.0 mg/kg/injection, schedule: Q01DX009 (ip), vehicle: Klucel (hydroxypropylcellulose) (HPC)
  T/C: 122 % of control
dose: 133.0 mg/kg/injection, schedule: Q01DX009 (ip), vehicle: other
  T/C: 122 % of control
dose: 177.0 mg/kg/injection, schedule: Q01DX001 (ip), vehicle: other
  T/C: 97 % of control
dose: 200.0 mg/kg/injection, schedule: Q01DX009 (ip), vehicle: Klucel (hydroxypropylcellulose) (HPC)
  T/C: 115 % of control
dose: 200.0 mg/kg/injection, schedule: Q01DX009 (ip), vehicle: other
  T/C: 108 % of control
dose: 266.0 mg/kg/injection, schedule: Q01DX001 (ip), vehicle: other
  T/C: 113 % of control
dose: 300.0 mg/kg/injection, schedule: Q01DX009 (ip), vehicle: Klucel (hydroxypropylcellulose) (HPC)
  T/C: 111 % of control and 124 % of control
dose: 300.0 mg/kg/injection, schedule: Q01DX009 (ip), vehicle: other
  T/C: 95 % of control and 90 % of control
[4]
  T/C: 101 % of control

## O=C(c1ccccc1)C1C(c2ccccc2)N1C(=O)c1ccc([N+](=O)[O-])cc1 (configuration not stated)
dose: 75.0 mg/kg/injection, schedule: Q01DX001 (ip), vehicle: saline with Tween-80
  T/C: 96 % of control
dose: 150.0 mg/kg/injection, schedule: Q01DX001 (ip), vehicle: saline with Tween-80
  T/C: 86 % of control
dose: 300.0 mg/kg/injection, schedule: Q01DX001 (ip), vehicle: saline with Tween-80
  T/C: 91 % of control

## Clc1cccc(NCCc2ccccc2)c1
[5]
  T/C: 94 % of control
[6]
  T/C: 94 % of control
[7]
  T/C: 102 % of control

## NC(=O)NOCC1NC(=O)NC1=O (configuration not stated)
[1]
  T/C: 96 % of control
[2]
  T/C: 102 % of control
[3]
  T/C: 102 % of control

## COC1CCC(NC(=O)N(CCCl)N=O)CC1 (configuration not stated)
dose: 3.5 mg/kg/injection, schedule: Q01DX001 (ip), vehicle: saline with Tween-80
  T/C: 106 % of control
dose: 5.0 mg/kg/injection, schedule: Q01DX001 (ip), vehicle: saline with Tween-80
  T/C: 110 % of control
dose: 8.0 mg/kg/injection, schedule: Q01DX001 (ip), vehicle: saline with Tween-80
  T/C: 124 % of control
dose: 16.0 mg/kg/injection, schedule: Q01DX001 (ip), vehicle: saline with Tween-80
  T/C: 155 % of control and 266 % of control
dose: 18.0 mg/kg/injection, schedule: Q01DX001 (ip), vehicle: saline with Tween-80
  T/C: 221 % of control
dose: 24.0 mg/kg/injection, schedule: Q01DX001 (ip), vehicle: saline with Tween-80
  T/C: 592 % of control
dose: 26.0 mg/kg/injection, schedule: Q01DX001 (ip), vehicle: saline with Tween-80
  T/C: 302 % of control
dose: 35.0 mg/kg/injection, schedule: Q01DX001 (ip), vehicle: saline with Tween-80
  T/C: 404 % of control
dose: 40.0 mg/kg/injection, schedule: Q01DX001 (ip), vehicle: saline with Tween-80
  T/C: 340 % of control
dose: 53.0 mg/kg/injection, schedule: Q01DX001 (ip), vehicle: saline with Tween-80
  T/C: 193 % of control
dose: 60.0 mg/kg/injection, schedule: Q01DX001 (ip), vehicle: saline with Tween-80
  T/C: 294 % of control

## COc1ccc(/C=C(/C(=O)c2ccc(OCCN3CCCC3)cc2)c2ccccc2)cc1OC
dose: 100.0 mg/kg/injection, schedule: Q04DX003 (sc), vehicle: olive oil, sesame oil, peanut oil
  T/C: 101 % of control
dose: 200.0 mg/kg/injection, schedule: Q04DX003 (sc), vehicle: olive oil, sesame oil, peanut oil
  T/C: 98 % of control
dose: 400.0 mg/kg/injection, schedule: Q04DX003 (sc), vehicle: olive oil, sesame oil, peanut oil
  T/C: 97 % of control
